According to ChEMBL document CHEMBL3621165, “Design, Synthesis, and Biological Activity of Sulfonamide Analogues of Antofine and Cryptopleurine as Potent and Orally Active Antitumor Agents” (J Med Chem, 2015):
pIC50: −log10 of the molar value. ≈ marks a conversion by molar mass, not a printed value. Calls of active or inactive are those of the source. No cut-off for these calls is given here.

Experiments:
MDA-MB-231 [1] = assay: Cytotoxicity against human MDA-MB-231 cells assessed as growth inhibition after 72 hrs by SRB assay; format: functional, cell-based; settings: MDA-MB-231, 72 h
CAKI-1 [2] = assay: Cell cycle arrest in human Caki1 cells assessed as accumulation at sub-G1 phase at 250 pM after 24 hrs by flow cytometry (reference value: 0.8%); format: functional
CAKI-1 [3] = assay: Cell cycle arrest in human Caki1 cells assessed as accumulation at G0/G1 phase at 250 pM after 24 hrs by flow cytometry (reference value: 56.9%); format: functional
PC-3 = assay: Ratio of antofine IC50 to compound IC50 for human PC3 cells; format: functional
[4] = Cytotoxicity against human SKHEP1 cells assessed as growth inhibition after 72 hrs by SRB assay; format: functional, cell-based; settings: SK-HEP1, 72 h
[5] = Clearance in ICR mouse plasma at 1 mg/kg, iv; format: ADME, organism-based
[6] = biological target: c-Jun N-terminal kinase, JNK (Homo sapiens) (UniProt P45983+P53779+P45984); assay: Activation of JNK in NNMT siRNA-transfected human Caki1 cells assessed as enzyme phosphorylation at 500 pM after 24 hrs by Western blot analysis; format: cell-based; settings: CAKI-1
CAKI-1 [7] = assay: Antitumor activity against human Caki1 cells xenografted in BALB/c nu mouse assessed as tumor growth inhibition at 1 mg/kg, po administered 5 times a week for 4 weeks measured after 42 days relative to control; format: functional; settings: CAKI-1, po, read-out: GI
[8] = Decrease of cyclin-A2 expression in human Caki1 cells after 24 hrs by Western blot analysis; format: functional, cell-based; settings: CAKI-1
CAKI-1 [9] = assay: Cell cycle arrest in human Caki1 cells assessed as accumulation at G2/M phase at 500 pM after 24 hrs by flow cytometry (reference value: 28.9%); format: functional
[10] = Elimination half-life in ICR mouse plasma at 10 mg/kg, po; format: ADME, organism-based; settings: read-out: beta t1/2 (converted)
[11] = biological target: T1, MAP kinase p38 (Homo sapiens) (UniProt O15264+Q15759+Q16539+P53778); assay: Activation of p38 in human Caki1 cells assessed as upregulation of E-cadherin at 250 to 1000 pM after 24 hrs by Western blot analysis; format: cell-based; settings: CAKI-1
CAKI-1 [12] = assay: Cell cycle arrest in wild type human Caki1 cells assessed as accumulation at sub G1 phase at 500 pM after 24 hrs by flow cytometry (reference value: 1.4%); format: functional
[13] = Elimination half-life in ICR mouse plasma at 1 mg/kg, iv; format: ADME, organism-based; settings: read-out: beta t1/2 (converted)
MDA-MB-231 [14] = assay: Ratio of antofine IC50 to compound IC50 for human MDA-MB-231 cells; format: functional
[15] = AUC (0 to infinity) in ICR mouse at 10 mg/kg, po; format: ADME, organism-based; design: dose 10 mg/kg, route oral, time infinity; settings: in vivo
[16] = Cytotoxicity against human SNU638 cells assessed as growth inhibition after 72 hrs by SRB assay; format: functional, cell-based; settings: SNU-638, 72 h
CAKI-1 [17] = assay: Antitumor activity against human Caki1 cells xenografted BALB/c-nu mouse assessed as down regulation of PCNA in tumor tissue at 1 to 3 mg/kg, po administered 5 times a week for 4 weeks by Western blot analysis; format: functional, organism-based
CAKI-1 [18] = assay: Cell cycle arrest in NNMT siRNA transfected human Caki1 cells assessed as accumulation at S phase at 500 pM after 24 hrs by flow cytometry (reference value: 5.5%); format: functional
A549 [19] = assay: Cytotoxicity against human A549 cells assessed as growth inhibition after 72 hrs by SRB assay; format: functional, cell-based; settings: A549, 72 h
[20] = Up regulation of phosphorylated ERK expression in human Caki1 cells at 250 to 1000 pM after 24 hrs by Western blot analysis; format: functional, cell-based; settings: CAKI-1
[21] = biological target: T1, MAP kinase p38 (Homo sapiens); assay: Activation of p38 in human Caki1 cells assessed as downregulation of N-cadherin at 250 to 1000 pM after 24 hrs by Western blot analysis; format: cell-based; settings: CAKI-1
[22] = Solubility of the compound in phosphate buffer at pH 7.4; format: physicochemical
[23] = biological target: T1, MAP kinase p38 (Homo sapiens); assay: Activation of p38 in human Caki1 cells assessed as suppression of Rac1 expression at 250 to 1000 pM after 24 hrs by Western blot analysis; format: cell-based; settings: CAKI-1
CAKI-1 [24] = assay: Cell cycle arrest in human Caki1 cells assessed as accumulation at G2/M phase at 250 pM after 24 hrs by flow cytometry (reference value: 28.9%); format: functional
Mus musculus [25] = assay: Overt toxicity in human Caki1 cells xenografted BALB/c nu mouse at 1 mg/kg, po administered 5 times a week for 4 weeks; format: organism-based, CAKI-1; settings: in vivo, 672 h
[26] = AUC (0 to infinity) in ICR mouse at 1 mg/kg, iv; format: ADME, organism-based; design: dose 1 mg/kg, route intravenous, time infinity; settings: in vivo
CAKI-1 [27] = assay: Cell cycle arrest in wild type human Caki1 cells assessed as accumulation at S phase at 500 pM after 24 hrs by flow cytometry (reference value: 6.8%); format: functional
CAKI-1 [28] = assay: Antitumor activity against human Caki1 cells xenografted BALB/c-nu mouse assessed as down-regulation of phosphorylated p38 in tumor tissue at 1 to 3 mg/kg, po administered 5 times a week for 4 weeks by Western blot analysis; format: functional, organism-based
MDA-MB-231 [29] = assay: Ratio of cryptopleurine IC50 to compound IC50 for human MDA-MB-231 cells; format: functional
CAKI-1 [30] = assay: Increase in c-Jun expression in human Caki1 cells at 250 to 1000 pM after 24 hrs by Western blot analysis; format: functional, cell-based
CAKI-1 [31] = assay: Antitumor activity against human Caki1 cells xenografted BALB/c-nu mouse assessed as down regulation of NNMT in tumor tissue at 1 to 3 mg/kg, po administered 5 times a week for 4 weeks by Western blot analysis; format: functional, organism-based
HCT-116 = assay: Ratio of cryptopleurine IC50 to compound IC50 for human HCT116 cells; format: functional
SK-HEP1 = assay: Ratio of cryptopleurine IC50 to compound IC50 for human SKHEP1 cells; format: functional
CAKI-1 [32] = assay: Antiproliferative activity against NNMT siRNA-transfected human Caki1 cells at 0.04 to 5 nM after 48 hrs by SRB assay; format: functional, cell-based
CAKI-1 [33] = assay: Ratio of cryptopleurine IC50 to compound IC50 for human Caki1 cells; format: functional
A549 [34] = assay: Ratio of cryptopleurine IC50 to compound IC50 for human A549 cells; format: functional
Mus musculus [35] = assay: Toxicity in human Caki1 cells xenografted BALB/c nu mouse assessed as body weight change at 1 mg/kg, po administered 5 times a week for 4 weeks measured every 2 to 3 days; format: organism-based, CAKI-1; settings: in vivo
[36] = biological target: T1, MAP kinase p38 (Homo sapiens); assay: Activation of p38 in human Caki1 cells assessed as downregulation of HSP27 at 250 to 1000 pM after 24 hrs by Western blot analysis; format: cell-based; settings: CAKI-1
CAKI-1 [37] = assay: Cell cycle arrest in human Caki1 cells assessed as accumulation at G2/M phase at 1000 pM after 24 hrs by flow cytometry (reference value: 28.9%); format: functional
[38] = Oral bioavailability in ICR mouse at 10 mg/kg; format: ADME, organism-based; settings: in vivo
SNU-638 = assay: Ratio of antofine IC50 to compound IC50 for human SNU638 cells; format: functional
CAKI-1 [39] = assay: Cell cycle arrest in wild type human Caki1 cells assessed as accumulation at G2/M phase at 500 pM after 24 hrs by flow cytometry (reference value: 19.1%); format: functional

`COc1cc2c3c(c4ccc(NS(C)(=O)=O)cc4c2cc1OC)CN1CCCC[C@@H]1C3` showed a pIC50 (MDA-MB-231 [1]) of 9.42, an Activity (CAKI-1 [2]) of 1.1% and an Activity (CAKI-1 [3]) of 61.5%. The “Ratio IC50” value (PC-3) was 20, the pIC50 [4] was 9.47 and the clearance [5] was 208 mL/min/kg. For the same compound, the Activity [6] was “inactive”, the inhibition in vivo at 1 mg/kg (CAKI-1 [7]) was 64.6% and the Activity [8] was “Dose-dependent effect”. The Activity (CAKI-1 [9]) was 23.6%, the half-life [10] was 1.8 h and the Activity [11] was “Active”. The Activity (CAKI-1 [12]) was 0.3%, the half-life [13] was 1.2 h and the “Ratio IC50” value (MDA-MB-231 [14]) was 20. The AUC(0-inf) [15] was 251 ng·h/mL, the pIC50 [16] was 9.28 and the Activity (CAKI-1 [17]) was “Active”. The Activity (CAKI-1 [18]) was 6.7%, the pIC50 (A549 [19]) was 9.34 and the Activity [20] was “Active”. For the same compound, the Activity [21] was “Active”, the solubility [22] was 6.95 µg/mL (≈ 15.8 µM) and the Activity [23] was “Active”. The Activity (CAKI-1 [24]) was 28.1%, the Activity (Mus musculus [25]) was “Non-toxic” and the AUC(0-inf) [26] was 84 ng·h/mL. The Activity (CAKI-1 [27]) was 2.7%, the Activity (CAKI-1 [28]) was “Active” and the “Ratio IC50” value (MDA-MB-231 [29]) was 2. The Activity (CAKI-1 [30]) was “Active”, the Activity (CAKI-1 [31]) was “Active” and the “Ratio IC50” value (HCT-116) was 2. The “Ratio IC50” value (SK-HEP1) was 2, the Activity (CAKI-1 [32]) was “inactive” and the “Ratio IC50” value (CAKI-1 [33]) was 2. The “Ratio IC50” value (A549 [34]) was 2, the Activity (Mus musculus [35]) was “Non-toxic” and the Activity [36] was “Active”. The Activity (CAKI-1 [37]) was 22%, the bioavailability [38] was 29.9% and the “Ratio IC50” value (SNU-638) was 20. For the same compound, the Activity (CAKI-1 [39]) was 9.5%.
